# In patent publication US20040121316A1 (priority 2002, published 2004):
# Read-outs that look alike come from different tables or passages of the source.
# Experiments:
# mutant HIV-1 I84V/L90M = test: Resistance Evaluation, I84V/L90M fold change; format: cell-based
# in vitro = conditions: human
# [1] = target: T1, recombinant HIV-1 protease (Human immunodeficiency virus type 1 group M subtype B, UniProt P04585); test: biochemical
# T1 construct: Enzyme: recombinant HIV-1 protease expressed in E.Coli; purchased Bachem California, Inc. H-9040; host or cells: E. coli
# WT HIV protease = target: T2, WT HIV protease (Human immunodeficiency virus type 1 group M subtype B, UniProt P04585); test: biochemical; design: species or system HIV-1
# T2 construct: synthetic hexapeptide substrate cleavage by HIV-1 protease
# 84V90M HIV protease = 84V90M HIV protease (Human immunodeficiency virus type 1 group M subtype B, UniProt P04585, I572V/L578M); test: biochemical; design: species or system HIV-1
# WT HIV-1 [2] = test: microbe, parasite or virus in culture; format: cell-based
# HIV-1 84V90M = test: microbe, parasite or virus in culture; format: cell-based
# HIV-1 30N82I88D = test: microbe, parasite or virus in culture; format: cell-based
# HIV-1 48V54V82A = test: microbe, parasite or virus in culture; format: cell-based
# HIV-1 48V54V82S = test: microbe, parasite or virus in culture; format: cell-based; conditions: Human immunodeficiency virus 1, read-out: Cell-based assay (MT-4) EC50/nM 48V54V82S
# HIV-1 48V82A90M = test: microbe, parasite or virus in culture; format: cell-based; conditions: Human immunodeficiency virus 1, read-out: Cell-based assay (MT-4) EC50/nM 48V82A90M
# HIV-1 46I50V = test: microbe, parasite or virus in culture; format: cell-based
# [3] = system: wild-type HIV-1 strain IIIB; test: microbe, parasite or virus in culture; format: cell-based; conditions: Human immunodeficiency virus 1, IIIB
# [4] = system: recombinant HIV-1 strains with resistance mutations in the protease gene; test: Cross-Resistance Profile Assay, whole panel; format: cell-based; conditions: {}
# in vivo = conditions: beagle, dog, po
# WT HIV-1 [5] = test: microbe, parasite or virus in culture; format: cell-based; conditions: Human immunodeficiency virus 1, MT4, read-out: Cell-based assay (MT-4) EC50/nM WT
# [6] = system: recombinant HIV-1 10I 48V 54V 82A; test: microbe, parasite or virus in culture; format: cell-based; conditions: Human immunodeficiency virus 1, MT4, read-out: Cell-based assay (MT-4) EC50/nM 48V 54V 82A
# [7] = system: recombinant HIV-1 30N 50S 82I 88D; test: microbe, parasite or virus in culture; format: cell-based; conditions: Human immunodeficiency virus 1, MT4, read-out: Cell-based assay (MT-4) EC50/nM 30N 82I 88D
# [8] = system: recombinant HIV-1 10I 84V 71V 73S 90M; test: microbe, parasite or virus in culture; format: cell-based; conditions: Human immunodeficiency virus 1, MT4, read-out: Cell-based assay (MT-4) EC50/nM 84V 90M
# HIV-1 protease 84V90M = target: T3, HIV-1 protease 84V90M (Human immunodeficiency virus type 1 group M subtype B, UniProt P04585, I572V/L578M); test: Enzymatic assay, IC50 against 84V90M mutant protease; format: biochemical
# T3 construct: synthetic hexapeptide substrate cleavage by HIV-1 protease
# [9] = Human immunodeficiency virus 1, read-out: Cell-based assay (MT-4) EC50/nM WT
# [10] = Human immunodeficiency virus 1, MT-4, 84V90M, read-out: Cell-based assay (MT-4) EC50/nM 84V90M
# [11] = Human immunodeficiency virus 1, read-out: Cell-based assay (MT-4) EC50/nM 84V90M
# [12] = Human immunodeficiency virus 1, read-out: Cell-based assay (MT-4) EC50/nM 30N82I88D
# [13] = Human immunodeficiency virus 1, read-out: Cell-based assay (MT-4) EC50/nM 48V54V82A
# [14] = Human immunodeficiency virus 1, read-out: Cell-based assay (MT-4) EC50/nM 46I50V
# [15] = MT2, 120 h, read-out: Anti-HIV-1 Cell Culture Activity EC50
# [16] = Enzymatic assay, 84V90M, read-out: 84V90M IC50/nM
# [17] = read-out: Cell-based assay (MT-4) EC50/nM WT
# [18] = MT-4, 84V90M, read-out: Cell-based assay (MT-4) EC50/nM 84V90M
# [19] = MT-4, 30N82I88D, read-out: Cell-based assay (MT-4) EC50/nM 30N82I88D
# [20] = MT-4, 48V54V82A, read-out: Cell-based assay (MT-4) EC50/nM 48V54V82A
# [21] = MT-4, 46I50V, read-out: Cell-based assay (MT-4) EC50/nM 46I50V
# [22] = EC50 of mutant I84V/L90M relative to wild type, class symbols
smiles,measurement,setting,value
CC(C)CN(CC(O)C(Cc1ccc(OCP(=O)(OCc2ccccc2)OCc2ccccc2)cc1)NC(=O)OC1COC2OCCC12)S(=O)(=O)c1ccc(OC(F)(F)F)cc1 (centres unmarked),I84V/L90M fold change,mutant HIV-1 I84V/L90M; mutant I84V/L90M vs wild type,+ (>3 to ≦10)
same,CC50,in vitro,5000 to 50000 nM
Nc1n[nH]c2ccc(CN3C(=O)N(Cc4cccc(OCP(=O)(O)Oc5ccccc5)c4)C(Cc4ccccc4)C(O)C(O)C3Cc3ccccc3)cc12 (centres unmarked) [m-OCH2PO3HPh],Ki,"[1]; Ki (nM), Enzymatic assay",0.644 nM
same,IC50,WT HIV protease,17 nM
same,IC50,84V90M HIV protease,65 nM
same,EC50,WT HIV-1 [2]; [9],1740 nM
same,EC50,HIV-1 84V90M; [10],> 6000 nM
"CCOP(=O)(COc1ccc(CC2C(O)C(O)C(Cc3ccc(OC)cc3)N(Cc3cccc(N)c3)C(=O)N2Cc2cccc(N)c2)cc1)OCC (centres unmarked) [OCH3, Ph-mNH2, OCH2PO3Et2]",IC50,84V90M HIV protease,56 nM
same,EC50,HIV-1 84V90M; [11],535 nM
same,EC50,HIV-1 30N82I88D; [12],18 nM
same,EC50,HIV-1 48V54V82A; [13],202 nM
same,EC50,HIV-1 48V54V82S,117 nM
same,EC50,HIV-1 48V82A90M,102 nM
same,EC50,HIV-1 46I50V; [14],36 nM
Nc1n[nH]c2ccc(CN3C(=O)N(Cc4cccc(OCP(=O)(Oc5ccccc5)Oc5ccccc5)c4)C(Cc4ccccc4)C(O)C(O)C3Cc3ccccc3)cc12 (centres unmarked) [m-OCH2PO3Ph2],Ki,"[1]; Ki (nM), Enzymatic assay",0.543 nM
same,IC50,WT HIV protease,10 nM
same,IC50,84V90M HIV protease,42 nM
same,EC50,WT HIV-1 [2]; [9],1350 nM
same,EC50,HIV-1 84V90M; [10],> 6000 nM
same,EC50,"HIV-1 30N82I88D; Human immunodeficiency virus 1, MT-4, 30N82I88D, read-out: Cell-based assay (MT-4) EC50/nM 30N82I88D",1540 nM
same,EC50,"HIV-1 48V54V82A; Human immunodeficiency virus 1, MT-4, 48V54V82A, read-out: Cell-based assay (MT-4) EC50/nM 48V54V82A",2180 nM
same,EC50,"HIV-1 46I50V; Human immunodeficiency virus 1, MT-4, 46I50V, read-out: Cell-based assay (MT-4) EC50/nM 46I50V",3380 nM
"CCOP(=O)(COc1ccc(CC2C(O)C(O)C(Cc3ccccc3)N(Cc3cccc(N)c3)C(=O)N2Cc2cccc(N)c2)cc1)OCC (centres unmarked) [H, Ph-mNH2, OCH2PO3Et2]",EC50,HIV-1 84V90M; [11],328 nM
same,EC50,HIV-1 30N82I88D; [12],16 nM
same,EC50,HIV-1 48V54V82A; [13],168 nM
same,EC50,HIV-1 48V54V82S,146 nM
same,EC50,HIV-1 48V82A90M,74 nM
same,EC50,HIV-1 46I50V; [14],46 nM
CCOP(=O)(COc1ccc(C[C@H](NC(=O)O[C@H]2CO[C@H]3OCC[C@H]32)[C@H](O)CN(CC(C)C)S(=O)(=O)c2ccc(OC)cc2)cc1)OCC [Compound 13],EC50,[3]; [15],3 nM
same,CC50,in vitro,50000 nM
Nc1n[nH]c2ccc(CN3C(=O)N(Cc4ccc(OCP(=O)(O)O)cc4)C(Cc4ccccc4)C(O)C(O)C3Cc3ccccc3)cc12 (centres unmarked) [p-OCH2PO3H2],Ki,[1]; Ki (nM),> 5 nM
same,IC50,WT HIV protease,551 nM
same,IC50,84V90M HIV protease,1660 nM
same,EC50,WT HIV-1 [2]; [9],> 12000 nM
Nc1n[nH]c2ccc(CN3C(=O)N(CCCCO)C(Cc4ccccc4)C(O)C(O)C3Cc3ccccc3)cc12 (centres unmarked) [CH2OH],Ki,[1]; read-out: Ki,0.017 nM
same,IC50,WT HIV protease; read-out: WT IC50/nM,2.8 nM
same,IC50,84V90M HIV protease; [16],31 nM
same,EC50,WT HIV-1 [2]; [17],253 nM
same,EC50,HIV-1 84V90M; [18],1110 nM
same,EC50,HIV-1 30N82I88D; [19],486 nM
same,EC50,HIV-1 48V54V82A; [20],413 nM
same,EC50,HIV-1 46I50V; [21],524 nM
"COc1ccc(S(=O)(=O)N(CC(C)C)C[C@@H](O)[C@H](Cc2ccccc2)NC(=O)O[C@H]2CO[C@H]3OCC[C@H]32)cc1 [Example 94-003, reference compound]",EC50,[3],< 50 nM
same,EC50,[3]; [15],1.4 ± 0.3 nM
same,Total No. of Resistant Viruses,[4],3
same,CC50,in vitro,5000 to 50000 nM
CCCCOC(=O)C(C)NP(=O)(COc1cccc(CN2C(=O)N(Cc3ccc4[nH]nc(N)c4c3)C(Cc3ccccc3)C(O)C(O)C2Cc2ccccc2)c1)NC(C)C(=O)OCCCC (centres unmarked) [m-bis-Ala-Bu],Ki,[1]; read-out: Ki,1.28 nM
same,IC50,WT HIV protease; read-out: WT IC50/nM,18 nM
same,IC50,84V90M HIV protease; [16],103 nM
same,EC50,WT HIV-1 [2]; [17],1080 nM
same,EC50,HIV-1 84V90M; [18],> 6000 nM
same,EC50,HIV-1 30N82I88D; [19],2360 nM
same,EC50,HIV-1 48V54V82A; [20],1850 nM
same,EC50,HIV-1 46I50V; [21],1540 nM
COc1ccc(S(=O)(=O)N(CC(C)C)CC(O)C(Cc2ccc(OCP(=O)(O)O)cc2)NC(=O)OC2COC3OCCC23)cc1 (centres unmarked) [drawing 608 R1=OH R2=OH],EC50,[3],500 to 5000 nM
same,I84V/L90M fold change,mutant HIV-1 I84V/L90M; [22],− (≦3)
same,CC50,in vitro,> 50000 nM
CCOC(=O)C(C)NP(=O)(COc1cccc(CN2C(=O)N(Cc3ccc4[nH]nc(N)c4c3)C(Cc3ccccc3)C(O)C(O)C2Cc2ccccc2)c1)NC(C)C(=O)OCC (centres unmarked) [m-bis-Ala-Et],Ki,[1]; read-out: Ki,1.99 nM
same,IC50,WT HIV protease; read-out: WT IC50/nM,31 nM
same,IC50,84V90M HIV protease; [16],202 nM
same,EC50,WT HIV-1 [2]; [17],5620 nM
same,EC50,HIV-1 84V90M; [18],> 6000 nM
same,EC50,HIV-1 30N82I88D; [19],1850 nM
"CC(C)CN(C[C@@H](O)[C@H](Cc1ccccc1)NC(=O)O[C@H]1CCOC1)S(=O)(=O)c1ccc(N)cc1 [Amprenavir, reference compound]",EC50,[3],< 50 nM
same,EC50,[3]; [15],16 ± 2.2 nM
same,Total No. of Resistant Viruses,[4],4
same,AUC,in vivo,102 µM·h
same,half-life,in vivo,1.7 h
same,CC50,in vitro,> 50000 nM
CCOP(=O)(COc1ccc(CC2C(O)C(O)C(Cc3ccccc3)N(Cc3ccccc3)C(=O)N2Cc2ccccc2)cc1)OCC (centres unmarked),IC50,84V90M HIV protease,48 nM
same,EC50,HIV-1 84V90M; [11],2460 nM
same,EC50,HIV-1 30N82I88D; [12],293 nM
same,EC50,HIV-1 48V54V82A; [13],1440 nM
same,EC50,HIV-1 48V54V82S,1900 nM
same,EC50,HIV-1 48V82A90M,3290 nM
same,EC50,HIV-1 46I50V; [14],589 nM
CCOC(=O)C(C)NP(=O)(COc1ccc(CC(NC(=O)OC2COC3OCCC23)C(O)CN(CC(C)C)S(=O)(=O)c2ccc(OC)cc2)cc1)NC(C)C(=O)OCC (centres unmarked) [drawing 612 R1=Ala-Et R2=Ala-Et],EC50,[3],50 to 500 nM
same,I84V/L90M fold change,mutant HIV-1 I84V/L90M; [22],− (≦3)
same,CC50,in vitro,> 50000 nM
O=C1N(Cc2ccccc2)C(Cc2ccccc2)C(O)C(O)C(Cc2ccc(OCP(=O)(OCc3ccccc3)OCc3ccccc3)cc2)N1Cc1ccccc1 (centres unmarked),EC50,WT HIV-1 [5],1770 nM
same,EC50,[6],> 6000 nM
same,EC50,[7],3140 nM
same,EC50,[8],> 6000 nM
same,IC50,HIV-1 protease 84V90M,158 nM
CCOP(=O)(COc1ccc(CC(NC(=O)OC2COC3OCCC23)C(O)CN(CC(C)C)S(=O)(=O)c2ccc(OC)cc2)cc1)OCc1ccccc1 (centres unmarked) [drawing 608 R1=OEt R2=OBn],EC50,[3],< 50 nM
same,CC50,in vitro,< 5000 nM
Cc1c(O)cccc1C(=O)N[C@@H](CSc1ccccc1)[C@H](O)CN1C[C@H]2CCCC[C@H]2C[C@H]1C(=O)NC(C)(C)C [Nelfinavir],EC50,[3],< 50 nM
same,Total No. of Resistant Viruses,[4],9
same,distribution between cytosol and membrane fractions,quiescent PBMC,present only in the membrane fractions
same,AUC,in vivo,33 µM·h
same,half-life,in vivo,3 h
Nc1n[nH]c2ccc(CN3C(=O)N(Cc4cccc(OCP(=O)(O)O)c4)C(Cc4ccccc4)C(O)C(O)C3Cc3ccccc3)cc12 (centres unmarked) [m-OCH2PO3H2],Ki,[1]; Ki (nM),0.254 nM
same,IC50,WT HIV protease,8.3 nM
same,IC50,84V90M HIV protease,33 nM
same,EC50,WT HIV-1 [2]; [9],> 12000 nM
O=C1N(Cc2ccccc2)C(Cc2ccccc2)C(O)C(O)C(Cc2ccc(OCP(=O)(O)O)cc2)N1Cc1ccccc1 (centres unmarked),EC50,WT HIV-1 [5],> 6000 nM
same,EC50,[8],> 6000 nM
same,IC50,HIV-1 protease 84V90M,210 nM
